Reference: PubChem BioAssay AID1963966 (Molecular Pharmacology Branch, DTP, NCI, 2024)
pIC50: −log10 of the molar value.

System: 935938-334-R-J1-PDC spheroids with HUVEC/MSC, viability
Test: Anticancer human tumor 935938-334-R-J1-PDC patient-derived small intestine adenocarcinoma cell line growth inhibition [PI3K]
Details: for pIC50: curve of first compound; for viability, T/C: stronger effect = lower value
Text: Combinatorial screen of targeted agents with the PI3K inhibitors inavolisib, alpelisib, duvelisib, and copanlisib in multi-cell type tumor spheroids
A high-throughput screen of multi-cell type tumor spheroids was designed to identify active combinations of targeted small molecules and PI3K pathway inhibitors. Complex spheroids include a stromal component modeled by human endothelial cells (HUVEC) and fibroblasts modeled by human mesenchymal stem cells (MSCs). The concentration ranges selected for each drug and investigational agent were based upon clinically achievable concentrations if the clinical Cmax of the agent was known.
Compounds. The drugs and investigational agents: inavolisib (NSC800729), alpelisib (NSC765974), duvelisib (NSC772469), copanlisib (NSC816437), ipatasertib (NSC767898), afuresertib (NSC778305), talazoparib (NSC767125), sapanisertib (NSC764658), selumetinib (NSC741078), tovorafenib (DAY101, NSC766906), vemurafenib (NSC761431), ravoxertinib (NSC781343), sotorasib (NSC818433), MRTX1133 (NSC 836407), abemaciclib (NSC 768073), palbociclib (NSC758247), venetoclax (NSC 766270), SY5609 (NSC837396), enzalutamide (NSC755605), and darolutamide (NSC825331), were obtained from the National Cancer Institute (NCI) Developmental Therapeutics Program Chemical Repository. The FDA-approved anticancer drug set is available from the NCI Developmental Therapeutics Program. […] The stock solutions were prepared in dimethyl sulfoxide (DMSO, Sigma-Aldrich, St. Louis, MO, cat. D2650) at 800-fold the tested concentration and stored at -70 degrees C prior to their use. All drugs and investigational agents were tested over a range starting from a high concentration at or near the clinical Cmax and decreasing in half-log increments. If the clinical Cmax for an agent had not been determined, the highest concentration tested was 10 microM.
Cell Culture. All cells were maintained in an incubator at 37 degrees C and 5% CO2 with 95% humidity. The PDC lines were cultured according to standard operating procedures established by the NCI PDMR (https://pdmr.cancer.gov/sops/default.htm). All PDCs were thawed and cultured in Matrigel-coated flasks prepared with a working solution of 1X Ham's F-12 nutrient mix, without supplementation (Invitrogen, Waltham, MA, cat. 11765054), 100 U/mL penicillin-streptomycin (Invitrogen, cat. 15140122), and 2.5% Matrigel (Corning Inc., Corning, NY, cat. 354248) for the first three passages. The 354836-022-R-J1-PDC, 475296-252-R-J1-PDC, and 997726-040-R-J2-PDC lines were cultured in 6A media, which includes advanced DMEM/F-12 (Thermo Fisher Scientific, cat. 12634028), 10 mM HEPES (Thermo Fisher Scientific, cat. 15630080), 1X GlutaMAX supplement (Thermo Fisher Scientific, cat. 35050061), 0.1 mg/mL primocin (InvivoGen, San Diego, CA, cat. ant-pm-2), 10% defined fetal bovine serum, heat inactivated (HyClone Laboratories Inc., Logan, UT, cat. SH30070.03HI), 50% L-WRN conditioned media (ATCC, cat. CRL-3276), 1.25 mM N-Acetyl-L-cysteine (Sigma-Aldrich, cat. A9165), 10 mM nicotinamide (Sigma-Aldrich, cat. N0636), 1X B-27 supplement (Thermo Fisher Scientific, cat. 17504044), 1X N-2 supplement (Thermo Fisher Scientific, cat. 17502048), and 10 microM Y-27632 dihydrochloride (Tocris Bioscience, Bristol, United Kingdom, cat. 1254). The 624824-186-R-J2-PDC line was cultured in 6C/Colon 1B media, which includes all 6A media components plus 50 ng/mL human EGF recombinant protein (Thermo Fisher Scientific, cat. PHG0311). […]

[1] = second compound 0.00316 µM, first compound 0.0316 µM
[2] = second compound 0.00316 µM, first compound 0.1 µM
[3] = second compound 0.00316 µM, first compound 0.316 µM
[4] = second compound 0.00316 µM, first compound 1 µM
[5] = second compound 0.00316 µM, first compound 3.16 µM
[6] = second compound 0.00316 µM, first compound 10 µM
[7] = second compound 0.01 µM, first compound 0.0316 µM
[8] = second compound 0.01 µM, first compound 0.1 µM
[9] = second compound 0.01 µM, first compound 0.316 µM
[10] = second compound 0.01 µM, first compound 1 µM
[11] = second compound 0.01 µM, first compound 3.16 µM
[12] = second compound 0.01 µM, first compound 10 µM
[13] = second compound 0.0316 µM, first compound 0.0316 µM
[14] = second compound 0.0316 µM, first compound 0.1 µM
[15] = second compound 0.0316 µM, first compound 0.316 µM
[16] = second compound 0.0316 µM, first compound 1 µM
[17] = second compound 0.0316 µM, first compound 3.16 µM
[18] = second compound 0.0316 µM, first compound 10 µM
[19] = second compound 0.1 µM, first compound 0.0316 µM
[20] = second compound 0.1 µM, first compound 0.1 µM
[21] = second compound 0.1 µM, first compound 0.316 µM
[22] = second compound 0.1 µM, first compound 1 µM
[23] = second compound 0.1 µM, first compound 3.16 µM
[24] = second compound 0.1 µM, first compound 10 µM
[25] = second compound 0.316 µM, first compound 0.0316 µM
[26] = second compound 0.316 µM, first compound 0.1 µM
[27] = second compound 0.316 µM, first compound 0.316 µM
[28] = second compound 0.316 µM, first compound 1 µM
[29] = second compound 0.316 µM, first compound 3.16 µM
[30] = second compound 0.316 µM, first compound 10 µM
[31] = second compound 1 µM, first compound 0.0316 µM
[32] = second compound 1 µM, first compound 0.1 µM
[33] = second compound 1 µM, first compound 0.316 µM
[34] = second compound 1 µM, first compound 1 µM
[35] = second compound 1 µM, first compound 3.16 µM
[36] = second compound 1 µM, first compound 10 µM
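Note: compound exposure lasted seven days before viability was read.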
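Throughout, for viability, T/C: percent of vehicle DMSO treated spheroid viability so 100% = untreated.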

With `CCCS(=O)(=O)Nc1ccc(F)c(C(=O)c2c[nH]c3ncc(-c4ccc(Cl)cc4)cc23)c1F` + CC(Nc1ccc2c(c1)OCCn1cc(N3C(=O)OCC3C(F)F)nc1-2)C(N)=O the pIC50 (second compound 0.00316 µM) was 5.16, the pIC50 (second compound 0.01 µM) was 5.12 and the pIC50 (second compound 0.0316 µM) was 5.15. The pIC50 (second compound 0.1 µM) was 5.16, the pIC50 (second compound 0.316 µM) was 5.23 and the pIC50 (second compound 1 µM) was 5.27. The viability, T/C [1] was 100%, the viability, T/C [2] was 101% and the viability, T/C [3] was 162%. The viability, T/C [4] was 103%, the viability, T/C [5] was 92.6% and the viability, T/C [6] was 30.3%. It also gave a viability, T/C [7] of 136%, a viability, T/C [8] of 89.5% and a viability, T/C [9] of 136%. The viability, T/C [10] was 103%, the viability, T/C [11] was 118% and the viability, T/C [12] was 28.9%. The viability, T/C [13] was 92.3%, the viability, T/C [14] was 101% and the viability, T/C [15] was 98.3%. It also gave a viability, T/C [16] of 110%, a viability, T/C [17] of 100% and a viability, T/C [18] of 28.6%. The viability, T/C [19] was 93.6%, the viability, T/C [20] was 78.1% and the viability, T/C [21] was 104%. It also gave a viability, T/C [22] of 118%, a viability, T/C [23] of 88.5% and a viability, T/C [24] of 31.3%. For the same molecule, the viability, T/C [25] was 84.2%, the viability, T/C [26] was 92.4% and the viability, T/C [27] was 84.6%. It also gave a viability, T/C [28] of 102%, a viability, T/C [29] of 78.9% and a viability, T/C [30] of 24.6%. For the same molecule, the viability, T/C [31] was 72.5%, the viability, T/C [32] was 66.9% and the viability, T/C [33] was 86.5%. The viability, T/C [34] was 62.9%, the viability, T/C [35] was 77% and the viability, T/C [36] was 22.9%.
With `C#Cc1c(F)ccc2cc(O)cc(-c3ncc4c(N5CC6CCC(C5)N6)nc(OCC56CCCN5CC(F)C6)nc4c3F)c12` (stereo unspecified) + COc1c(OCCCN2CCOCC2)ccc2c3n(c(=NC(=O)c4cnc(N)nc4)nc12)CCN3 the pIC50 (second compound 0.00316 µM) was 5.29, the pIC50 (second compound 0.01 µM) was 5.65 and the pIC50 (second compound 0.0316 µM) was 6.23. It also gave a pIC50 (second compound 0.1 µM) of 7.09, a pIC50 (second compound 0.316 µM) greater than 7.50 and a pIC50 (second compound 1 µM) greater than 7.50. For the same molecule, the viability, T/C [1] was 97.9%, the viability, T/C [2] was 91.9% and the viability, T/C [3] was 75.3%. For the same molecule, the viability, T/C [4] was 70.9%, the viability, T/C [5] was 57% and the viability, T/C [6] was 40.7%. For the same molecule, the viability, T/C [7] was 101%, the viability, T/C [8] was 86.4% and the viability, T/C [9] was 103%. It also gave a viability, T/C [10] of 65.2%, a viability, T/C [11] of 46.5% and a viability, T/C [12] of 29.2%. It also gave a viability, T/C [13] of 66.4%, a viability, T/C [14] of 72.4% and a viability, T/C [15] of 53.6%. It also gave a viability, T/C [16] of 44.4%, a viability, T/C [17] of 31% and a viability, T/C [18] of 22.5%. It also gave a viability, T/C [19] of 57.5%, a viability, T/C [20] of 46.2% and a viability, T/C [21] of 39.9%. The viability, T/C [22] was 23%, the viability, T/C [23] was 24.2% and the viability, T/C [24] was 21.8%. It also gave a viability, T/C [25] of 34.4%, a viability, T/C [26] of 29.5% and a viability, T/C [27] of 27.7%. It also gave a viability, T/C [28] of 25.1%, a viability, T/C [29] of 25.6% and a viability, T/C [30] of 19.9%. For the same molecule, the viability, T/C [31] was 27.3%, the viability, T/C [32] was 30.4% and the viability, T/C [33] was 34.1%. The viability, T/C [34] was 24.6%, the viability, T/C [35] was 22.2% and the viability, T/C [36] was 23.9%.
Work on `CC1(C)CCC(Nc2ncc(C(F)(F)F)c(-c3c[nH]c4c(P(C)(C)=O)c(C#N)ccc34)n2)CN1` (stereo unspecified) + CC(Nc1ccc2c(c1)OCCn1cc(N3C(=O)OCC3C(F)F)nc1-2)C(N)=O yielded a pIC50 (second compound 0.00316 µM) greater than 7.50, a pIC50 (second compound 0.01 µM) greater than 7.50 and a pIC50 (second compound 0.0316 µM) greater than 7.50. The pIC50 (second compound 0.1 µM) was greater than 7.50, the pIC50 (second compound 0.316 µM) was greater than 7.50 and the pIC50 (second compound 1 µM) was greater than 7.50. The viability, T/C [1] was 46.2%, the viability, T/C [2] was 35% and the viability, T/C [3] was 29.9%. The viability, T/C [4] was 33.8%, the viability, T/C [5] was 25.8% and the viability, T/C [6] was 7.62%. It also gave a viability, T/C [7] of 42.7%, a viability, T/C [8] of 36.3% and a viability, T/C [9] of 27.2%. It also gave a viability, T/C [10] of 28.6%, a viability, T/C [11] of 30.4% and a viability, T/C [12] of 5.01%. For the same molecule, the viability, T/C [13] was 42.5%, the viability, T/C [14] was 40.5% and the viability, T/C [15] was 33.8%. It also gave a viability, T/C [16] of 27.1%, a viability, T/C [17] of 35.5% and a viability, T/C [18] of 6.2%. For the same molecule, the viability, T/C [19] was 36.8%, the viability, T/C [20] was 39.5% and the viability, T/C [21] was 30%. The viability, T/C [22] was 29.6%, the viability, T/C [23] was 31.3% and the viability, T/C [24] was 4.61%. For the same molecule, the viability, T/C [25] was 37.5%, the viability, T/C [26] was 29.5% and the viability, T/C [27] was 27.2%. It also gave a viability, T/C [28] of 29.2%, a viability, T/C [29] of 23.1% and a viability, T/C [30] of 6.76%. It also gave a viability, T/C [31] of 29.5%, a viability, T/C [32] of 24% and a viability, T/C [33] of 24.7%. For the same molecule, the viability, T/C [34] was 22.9%, the viability, T/C [35] was 18.3% and the viability, T/C [36] was 3.56%.
